Patent US20070117743A1, “New antitumoral compounds” (priority 2003, published 2007)
Where a SMILES comes first, the peptide text is derived from it. Bridges are numbered along the chain shown (N, C = ends). [ ]: non-standard residue; d: D form. The star is where a group is joined. d(aIle) = CC[C@H](C)[C@@H](N)C(=O)O; d(aThr) = C[C@@H](O)[C@@H](N)C(=O)O; Hexanoyl(5-Me) = CC(C)CCCC(=O)*; Orn = NCCC[C@H](N)C(=O)O; Dhb = C/C=C(\N)C(=O)O

Key:
Format in all cases: cell-based, human
A-549 = test: SRB colorimetric assay of cell growth and viability, A-549; conditions: A-549, 48 hours exposure; for GI50: read-out: GI50 A-549; for CC50: read-out: LC50 A-549
SK-MEL-28 = test: SRB colorimetric assay of cell growth and viability, SK-MEL-28; conditions: MEL-28, 48 hours exposure; for CC50: read-out: LC50 MEL-28
HT-29 = test: SRB colorimetric assay of cell growth and viability, HT-29; conditions: HT-29, 48 hours exposure; for GI50: read-out: GI50 HT-29; for CC50: read-out: LC50 HT-29
LoVo-Dox = test: SRB colorimetric assay of cell growth and viability, LoVo-Dox; conditions: LOVO-DOX, 48 hours exposure; for CC50: read-out: LC50 LOVO-DOX
Method in brief: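 After 48 hours continuous exposure to samples spanning 10 to 10^−8 μg/mL, biomass was quantified by sulforhodamine B staining of TCA-fixed cells (OD 490 nm). Cells, 5×10^3 per well in RPMI 1640 10% FBS, had attached 18 hours first; GI, TGI and LC derived from triplicate wells.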

DU-145 = test: SRB colorimetric assay of cell growth and viability, DU-145; conditions: DU-145; 48 hours exposure
LNCaP = test: SRB colorimetric assay of cell growth and viability, LNCaP; conditions: LN-caP, 48 hours exposure; for CC50: read-out: LC50 LN-caP
SK-BR-3 = test: SRB colorimetric assay of cell growth and viability, SK-BR-3; conditions: SK-BR-3; 48 hours exposure
IGROV-1 = test: SRB colorimetric assay of cell growth and viability, IGROV-1; conditions: IGROV; 48 hours exposure
IGROV-ET = test: SRB colorimetric assay of cell growth and viability, IGROV-ET; conditions: IGROV-ET, 48 hours exposure; for CC50: read-out: LC50 IGROV-ET
HeLa = test: SRB colorimetric assay of cell growth and viability, HeLa; conditions: HELA, 48 hours exposure; for CC50: read-out: LC50 HELA
HeLa-APL = test: SRB colorimetric assay of cell growth and viability, HeLa-APL; conditions: HELA-APL, 48 hours exposure; for CC50: read-out: LC50 HELA-APL
K-562 = test: SRB colorimetric assay of cell growth and viability, K-562; conditions: K-562, 48 hours exposure; for CC50: read-out: LC50 K-562
PANC-1 = test: SRB colorimetric assay of cell growth and viability, PANC-1; conditions: PANC-1, 48 hours exposure; for CC50: read-out: LC50 PANC-1

SMILES | TGI A-549 (A-549) | GI50 (A-549) | CC50 (A-549) | GI50 (SK-MEL-28) | TGI MEL-28 (SK-MEL-28) | CC50 (SK-MEL-28) | TGI HT-29 (HT-29) | GI50 (HT-29) | CC50 (HT-29) | GI50 (LoVo-Dox) | TGI LOVO-DOX (LoVo-Dox) | CC50 (LoVo-Dox) | GI50 (DU-145) | LC50 (concentration causing 50% net cell kill) (DU-145) | TGI DU-145 (DU-145) | GI50 (LNCaP) | TGI LN-caP (LNCaP) | CC50 (LNCaP) | GI50 (SK-BR-3) | LC50 (SK-BR-3) | also measured
C/C=C1\NC(=O)[C@H](Cc2ccccc2)NC(=O)[C@@H](C(C)C)NC(=O)[C@@H]([C@@H](C)CC)NC(=O)[C@H](NC(=O)[C@H](NC(=O)[C@H](CCCN)NC(=O)[C@H]2CCCN2C(=O)[C@H](NC(=O)[C@@H](NC(=O)[C@H](CCCN)NC(=O)[C@H](NC(=O)CCCC(C)C)C(C)C)C(C)C)C(C)C)[C@@H](C)CC)[C@@H](C)OC(=O)[C@H](C(C)C)NC1=O [Compound 116, [Orn^12]-KF] ({Hexanoyl(5-Me)}-[dV][Orn]V[dV][dP][Orn][d(aIle)][d(aThr)][d(aIle)][dV]F[Dhb]V; ester 8-C) | 6.71E−06 Molar | 6710 nM | 6710 nM | 4320 nM | 6.71E−06 Molar | 6710 nM | 3.88E−06 Molar | 2240 nM | 6710 nM | 1940 nM | 3.71E−06 Molar | 6710 nM | 3320 nM | 6710 nM | 6.71E−06 Molar | 1540 nM | 3.10E−06 Molar | 6240 nM | 1450 nM | 5510 nM | TGI SK-BR-3 (SK-BR-3): 2.82E−06 Molar; GI50 (IGROV-1): 2050 nM; LC50 (concentration causing 50% net cell killing) (IGROV-1): 6710 nM; TGI IGROV (IGROV-1): 3.86E−06 Molar; GI50 (IGROV-ET): 1870 nM; TGI IGROV-ET (IGROV-ET): 3.23E−06 Molar; CC50 (IGROV-ET): 5550 nM; GI50 (HeLa): 1540 nM; TGI HELA (HeLa): 3.35E−06 Molar; CC50 (HeLa): 6710 nM; GI50 (HeLa-APL): 3000 nM; TGI HELA-APL (HeLa-APL): 6.71E−06 Molar; CC50 (HeLa-APL): 6710 nM; GI50 (K-562): 919 nM; TGI K-562 (K-562): 2.34E−06 Molar; CC50 (K-562): 5940 nM; GI50 (PANC-1): 6080 nM; TGI PANC-1 (PANC-1): 6.71E−06 Molar; CC50 (PANC-1): 6710 nM
C/C=C1\NC(=O)[C@H](Cc2ccccc2)NC(=O)[C@@H](C(C)C)NC(=O)[C@@H]([C@@H](C)CC)NC(=O)[C@H](NC(=O)[C@H](NC(=O)[C@H](CCCN)NC(=O)[C@H]2CCCN2C(=O)[C@H](NC(=O)[C@@H](NC(=O)[C@H](Cc2ccccc2)NC(=O)[C@H](NC(=O)CCCC(C)C)C(C)C)C(C)C)C(C)C)[C@@H](C)CC)[C@@H](C)OC(=O)[C@H](C(C)C)NC1=O [Compound 114, [Phe^12]-KF] ({Hexanoyl(5-Me)}-[dV]FV[dV][dP][Orn][d(aIle)][d(aThr)][d(aIle)][dV]F[Dhb]V; ester 8-C) | 3.50E−07 Molar | 157 nM | 1520 nM | 170 nM | 3.36E−07 Molar | 748 nM | 3.22E−07 Molar | 157 nM | 696 nM | 180 nM | 3.94E−07 Molar | 4270 nM | 180 nM | 1730 nM | 3.75E−07 Molar | 53 nM | 3.00E−07 Molar | 4700 nM | 207 nM | 6560 nM | TGI SK-BR-3 (SK-BR-3): 4.62E−07 Molar; GI50 (IGROV-1): 114 nM; LC50 (concentration causing 50% net cell killing) (IGROV-1): 6560 nM; TGI IGROV (IGROV-1): 3.10E−07 Molar; GI50 (IGROV-ET): 301 nM; TGI IGROV-ET (IGROV-ET): 8.40E−07 Molar; CC50 (IGROV-ET): 6380 nM; GI50 (HeLa): 259 nM; TGI HELA (HeLa): 9.25E−07 Molar; CC50 (HeLa): 5690 nM; GI50 (HeLa-APL): 143 nM; TGI HELA-APL (HeLa-APL): 3.49E−07 Molar; CC50 (HeLa-APL): 2030 nM; GI50 (K-562): 78.7 nM; TGI K-562 (K-562): 3.71E−07 Molar; CC50 (K-562): 4030 nM; GI50 (PANC-1): 233 nM; TGI PANC-1 (PANC-1): 1.16E−06 Molar; CC50 (PANC-1): 6560 nM
